In patent US20070021501A1, “Methods of treating epileptogenesis” (priority 2005, published 2007):
Several values for one entry are separate records, joined by “and”; a condition that tells them apart may be missing. Identical values can stand only once.

Key:
[1] = test system: lithium-pilocarpine status epilepticus in the rat; assay: Mortality induced by SE, lithium-pilocarpine model (Example 1); type: in vivo; details: DZP 2 mg/kg i.m. 1 h after onset of SE (5/22)
Source text: The model induced in rats by pilocarpine associated with lithium (Li-Pilo) reproduces most of the clinical and neurophysiological features of human temporal lobe epilepsy (Turski et al., 1989, Synapse 3:154-171; Cavalheiro, 1995, Ital J Neurol Sci 16:33-37). In adult rats, the systemic administration of pilocarpine leads to status epilepticus (SE). The lethality rate reaches 30-50% during the first days. In the surviving animals, neuronal damage predominates within the hippocampal formation, the piriform and entorhinal cortices, thalamus, amygdaloid complex, neocortex and substantia nigra.
(§1) Male Wistar rats weighing 225-250 g, provided by Janvier Breeding Center (Le Genest-St-lste, France) were housed under controlled standard conditions (light/dark cycle, 7.00 a.m.-7.00 p.m. lights on), with food and water available ad libitum. All animal experimentation was performed in accordance with the rules of the European Communities Council Directive of Nov. 24, 1986 (86/609/EEC), and the French Department of Agriculture (License N^o 67-97). For electrode implantation, rats were anesthetized by an i.p. injection of 2.5 mg/kg diazepam (DZP, Valium, Roche, France) and […] ketamine chlorhydrate (Imalgene 1000, Rhone Merrieux, France). Four single-contact recording electrodes were placed on the skull, over the parietal cortex, two on each side.
(§2) The bilateral EEG cortical activity was recorded during the whole duration of SE and behavioral changes were noted.
The effects of increasing doses of the test compound were studied on 3 groups of rats. The animals of the first group received 10 mg/kg of the test compound, i.p., 1 h after the onset of SE (pilo-TC10) while the animals of groups 2 and 3 received 30 and 60 mg/kg of the test compound (pilo-TC30 and pilo-TC60), respectively.
The control group received saline instead of pilocarpine and the test compound (saline-saline). […] Pilo-DZP received a second injection of 1 mg/kg DZP on the day of SE at about 10 h after the first one. Thereafter, Pilo-DZP and saline-saline rats received twice daily an equivalent volume of saline.

[2] = test system: lithium-pilocarpine model of temporal lobe epilepsy in the rat; assay: Mossy fiber sprouting in hippocampus, Timm staining (Example 1); type: in vivo; details: DZP (n=9)
Method: At 2 months after the onset of spontaneous recurrent seizures, mossy fiber sprouting was examined on rats in the chronic period exposed to the test compound or DZP and in 3 saline-saline rats. Animals were deeply anaesthetized and perfused transcardially with saline followed by 100 ml of 1.15% (w/v) Na2S in 0.1 M phosphate buffer, and 100 ml of 4% (v/v) formaldehyde in 0.1 M phosphate buffer. Brains were removed from skull, post-fixed in 4% formaldehyde during 3-5 h and 40 μm sections were cut on a sliding vibratome and mounted on gelatin-coated slides.
The following day, sections were developed in the dark in a 26° C. solution of 50% (w/v) arabic gum (160 ml), sodium citrate buffer (30 ml), 5.7% (w/v) hydroquinone (80 ml) and 10% (w/v) silver nitrate (2.5 ml) during 40-45 min. The sections were then rinsed with tap water at 40° C. during at least 45 min, rinsed rapidly with distilled water and allowed to dry. They were dehydrated in ethanol and coverslipped.
Mossy fiber sprouting was evaluated according to criteria previously described in dorsal hippocampus (Cavazos et al., 1991, J Neurosci 11:2795-2803.), which are follows: 0—no granules between the tips and crest of the DG; 1—sparse granules in the supragranular region in a patchy distribution between the tips and crest of DG; 2—more numerous granules in a continuous distribution between the tips and crest of DG; 3—prominent granules in a continuous pattern between tips and crest, with occasional patches of confluent granules between tips and crest; 4—prominent granules that form a confluent dense laminar band between tips and crest and 5—confluent dense laminar band of granules that extends into the inner molecular layer.

[3] = test system: lithium-pilocarpine model of temporal lobe epilepsy in the rat; assay: Quantification of cell densities (neuronal counting) 14 days after Li-pilo SE (Example 2); details: for number of neuronal cell bodies: DZP 2.5 mg/kg i.m., 14 days after li-pilo SE
Method: All rats received lithium chloride (3 meq/kg, i.p., Sigma, St Louis, Mo., U.S.A.) and about 20 h later, all animals received also methylscopolamine bromide (1 mg/kg, s.c., Sigma) that was administered to limit the peripheral effects of the convulsant. […] The effects of increasing doses of TC were studied in 5 groups of rats. […] The control group received vehicle instead of pilocarpine and TC.
For neuronal counting, animals were deeply anesthetized with 1.8 g/kg pentobarbital (Dolethal®, Vétoquinol, Lure, France). Brains were then removed and frozen. Serial 20 μm slices were cut in a cryostat, air-dried during several days before thionine staining. […] The grid of counting was placed on a well defined area of the cerebral structure of interest and counting was carried out with a microscopic enlargement of 200- or 400-fold defined for each single cerebral structure. Cell counts were performed twice on each side of three adjacent sections for each region by a single observer unaware of the animal's treatment. The number of cells obtained in the 12 counted fields in each cerebral structure was averaged. This procedure was used to minimize the potential errors that could result from double counting leading to overestimation of cell numbers. […] Counts involved only neurons with cell bodies larger than 10 μm. Cells with small cell bodies were considered as glial cells and were not counted.
For neuronal damage and epileptogenesis, statistical analysis between groups was performed by means of a one-way analysis of variance followed by a post-hoc Dunnett or Fisher test using the Statistica software.

[4] = test system: lithium-pilocarpine model of temporal lobe epilepsy in the rat; assay: Latency to and frequency of spontaneous seizures, video recording (Example 2); type: in vivo, Sprague-Dawley rats; details: DZP 2.5 mg/kg i.m.
Method: The effects of DZP and the 4 doses of TC on epileptogenesis were investigated by daily video recording of the animals for 10 h per day. Video recording was performed for 4 weeks during which the occurrence of the first seizure was noted as well as the total number of seizures over the whole period. Animals were then taken off the video recording system and kept for 4 additional weeks in our animal facilities before they were sacrificed after a total period of 8 weeks of epilepsy.

[5] = test system: lithium-pilocarpine status epilepticus in the rat; assay: EEG patterns during and after Li-pilo SE (Example 1); type: in vivo; details: DZP 2 mg/kg i.m.; cortex and hippocampus
Method: as §1, §2
The effects of the test compound on the EEG and on the latency to occurrence of SRS were investigated by daily video recording of the animals for 10 h per day and the recording of the electrographic activity twice a week for 8 h.

[6] = test system: lithium-pilocarpine status epilepticus in the rat; assay: Mortality over the first 48 h after Li-pilo SE (Example 2); type: in vivo, Sprague-Dawley rats; details: DZP 2.5 mg/kg i.m.
Method: Adult male Sprague-Dawley rats provided by Janvier Breeding Center (Le Genest-St-lsle, France) were housed under controlled, uncrowded standard conditions at 20-22° C. (light/dark cycle, 7.00 a.m.-7.00 p.m. lights on), with food and water available ad libitum. All animal experimentation was performed in accordance with the rules of the European Communities Council Directive of Nov. 24, 1986 (86/609/EEC), and the French Department of Agriculture (License N^o 67-97).

Structure (SMILES): CN1C(=O)CN=C(c2ccccc2)c2cc(Cl)ccc21 [DZP, diazepam]
- mortality during the first 48 h after SE [1]: 23%
- mean Timm score in the upper blade of the dentate gyrus [2]: 2.8±0.8
- number of neuronal cell bodies ([3]; Amygdala Medial, dorsal anterior): 40.0 ± 2.5
- number of neuronal cell bodies ([3]; Amygdala Medial, ventral posterior): 21.8 ± 2.4
- number of neuronal cell bodies ([3]; Cerebral cortex Entorhinal, layer II, dorsal): 23.5 ± 0.7
- number of neuronal cell bodies ([3]; Cerebral cortex Entorhinal, layer II, ventral): 21.7 ± 1.3
- number of neuronal cell bodies ([3]; Cerebral cortex Entorhinal, layer III/IV, dorsal): 22.3 ± 0.5
- number of neuronal cell bodies ([3]; Cerebral cortex Entorhinal, layer III/IV, ventral): 7.7 ± 2.3
- number of neuronal cell bodies ([3]; Cerebral cortex Piriform, layer II, dorsal): 12.6 ± 4.2
- number of neuronal cell bodies ([3]; Cerebral cortex Piriform, layer II, ventral): 3.6 ± 0.7
- number of neuronal cell bodies ([3]; Cerebral cortex Piriform, layer III): 1.2 ± 1.2
- neurons surviving ([3]; DZP, all parts of the entorhinal cortex (range), 14 days after SE): 27-81%
- neuronal loss (drop out) compared to control rats ([3]; DZP, amygdala basolateral nucleus, 14 days after SE): 73%
- neuronal damage compared to control rats ([3]; DZP, amygdala central nucleus, 14 days after SE): no neuronal damage
- neuronal loss (drop out) compared to control rats ([3]; DZP, amygdala medial dorsal anterior nucleus, 14 days after SE): 53%
- neuronal loss compared to control rats ([3]; DZP, amygdala medial ventral posterior nucleus, 14 days after SE): 38%
- neuronal damage compared to control rats ([3]; DZP, dentate gyrus granule cell layer, 14 days after SE): did not show overt damage
- neuronal damage compared to control saline-treated rats ([3]; DZP, dorsal entorhinal cortex layer II, 14 days after SE): 18%
- neuronal damage compared to control saline-treated rats ([3]; DZP, dorsal entorhinal cortex layers III-IV, 14 days after SE): 24%
- neuronal loss compared to control rats ([3]; DZP, hilus of dentate gyrus, 14 days after SE): 65% and 66%
- neuronal loss (drop out) compared to control rats ([3]; DZP, hippocampus CA1 pyramidal cell layer, 14 days after SE): 85%
- neuronal loss compared to control rats ([3]; DZP, hippocampus CA3 region, 14 days after SE): 40%
- neuronal loss compared to control saline-treated rats ([3]; DZP, piriform cortex dorsal layer II, 14 days after SE): 66%
- neuronal loss compared to control saline-treated rats ([3]; DZP, piriform cortex layer III, 14 days after SE): 94%
- neuronal loss compared to control saline-treated rats ([3]; DZP, piriform cortex ventral layer II, 14 days after SE): 89%
- neuronal loss (drop out) compared to control rats ([3]; DZP, thalamus central medial nucleus, 14 days after SE): 34%
- neuronal loss (drop out) compared to control rats ([3]; DZP, thalamus dorsolateral medial dorsal nucleus, 14 days after SE): 40%
- neuronal loss (drop out) compared to control rats ([3]; DZP, thalamus mediodorsal central nucleus, 14 days after SE): 18%
- neuronal loss (drop out) compared to control rats ([3]; DZP, thalamus mediodorsal lateral nucleus, 14 days after SE): 24%
- neuronal loss compared to control rats ([3]; DZP, thalamus mediodorsal nucleus, 14 days after SE): 49%
- neuronal loss compared to control rats ([3]; DZP, thalamus ventral lateral division of the dorsolateral nucleus, 14 days after SE): 90%
- neuronal damage compared to control saline-treated rats ([3]; DZP, ventral entorhinal cortex layer II, 14 days after SE): 22% and 19%
- neuronal damage compared to control saline-treated rats ([3]; DZP, ventral entorhinal cortex layers III/IV, 14 days after SE): 74% and 73%
- number of neuronal cell bodies ([3]; Hippocampus CA1 area): 10.9 ± 1.9
- number of neuronal cell bodies ([3]; Hippocampus CA3 area): 31.3 ± 2.9
- number of neuronal cell bodies ([3]; Hippocampus Hilus): 33.5 ± 3.0
- number of neuronal cell bodies ([3]; Thalamus Central medial): 74.2 ± 7.4
- number of neuronal cell bodies ([3]; Thalamus Dorsolateral, medial, dorsal): 61 ± 6.3
- number of neuronal cell bodies ([3]; Thalamus Dorsolateral, ventral lateral): 9.7 ± 2.5
- number of neuronal cell bodies ([3]; Thalamus Mediodorsal central): 26.3 ± 1.8
- number of neuronal cell bodies ([3]; Thalamus Mediodorsal lateral): 19.6 ± 0.8
- number of neuronal cell bodies ([3]; Thalamus Mediodorsal medial): 16.4 ± 1.9
- frequency of spontaneous seizures over the four weeks of recording [4]: tendency to be higher
- EEG by 6-7 h of SE [5]: spiking activity was still present in the cortex and the hippocampus
- mortality over the first 48 h after SE ([6]; group devoted to cell counting at 14 days (4/11)): 36%
- mortality over the first 48 h after SE ([6]; group devoted to latency to SRS and late cell counting (1/14)): 7%
